The values that follow come from ChEMBL document CHEMBL1140518, “Unique spirocyclopiperazinium salt III: further investigation of monospirocyclopiperazinium (MSPZ) salts as potential analgesics” (Bioorg Med Chem Lett, 2007).

The first test has as its system Mus musculus. As to the kind of experiment: Analgesic activity in mouse assessed as inhibition of acetic acid-induced writhing responses at 31 umol/kg, ip between 5 to 10 mins. The test is classed as functional. Set-up: scale not given: the % may be the effect or the level left. Background: In writhing tests, fewer writhes than in controls are read as antinociception.
Turning to `CC1C[N+]2(CCN(Cc3ccccc3)CC2)CC(C)O1.[Cl-]` (stereo not given), the Activity came out at 21%. For the molecule `COc1ccc(N2CC[N+]3(CCCC3)CC2)cc1.[Br-]`, the Activity is 56%.

For the molecule `CC1C[N+]2(CCN(C/C=C/c3ccccc3)CC2)CC(C)O1.[Cl-]` (stereo not given), the Activity was -43%. With `C[N+]1(C)CCN(CCc2ccccc2)CC1.[Cl-]`, the Activity is given as 18%. For `[Cl-].c1ccc(CCN2CC[N+]3(CCCC3)CC2)cc1`, the Activity is reported as -36%. Still for that read-out and setting: then `[Br-].c1ccc(N2CC[N+]3(CCCC3)CC2)cc1`, with 20%; and `CC1C[N+]2(CCN(CCc3ccc([N+](=O)[O-])cc3)CC2)CC(C)O1.[Cl-]` (stereo not given), with -24%; and `C[N+]1(C)CCN(c2cccc([N+](=O)[O-])c2)CC1.[I-]`, with -16%. Same read-out and setting: the figure for `CC1C[N+]2(CCN(CCc3ccccn3)CC2)CC(C)O1.[Cl-]` (stereo not given) is -2%; for `CC1C[N+]2(CCN(CCCc3ccccc3)CC2)CC(C)O1.[Cl-]` (stereo not given) it is -19%; for `CC1C[N+]2(CCN(CCc3ccccc3)CC2)CC(C)O1.[Cl-]` (stereo not given) it is 65%. Turning to `[Cl-].c1ccc(CCN2CC[N+]3(CCCCCC3)CC2)cc1`, the Activity is reported as 4%. Still for that read-out and setting: then `[Cl-].c1ccc(CCN2CC[N+]3(CCCCC3)CC2)cc1`, with 5%; and `O=[N+]([O-])c1cccc(N2CC[N+]3(CCCC3)CC2)c1.[Br-]`, with 61%. On the same count and under the same terms, then `O=[N+]([O-])c1ccc(N2CC[N+]3(CCCC3)CC2)cc1.[Br-]`, with 16%; and `C=CCN1CC[N+]2(CC1)CC(C)OC(C)C2.[Cl-]` (stereo not given), with 49%.

For the molecule `COc1ccc(CCN2CC[N+]3(CC2)CC(C)OC(C)C3)cc1.[Cl-]` (stereo not given), the Activity was -47%. For the molecule `C[N+]1(C)CCN(c2cccc([N+](=O)[O-])c2)CC1.[Br-]`, the Activity amounted to 22%.

The next test deals with Mus musculus. As to the kind of experiment: […] in ip dosed nociception mouse model. The test is classed as functional.
As a reminder, the LD50 is the dose expected to kill half of the subjects tested. Regarding `CC1C[N+]2(CCN(CCc3ccccc3)CC2)CC(C)O1.[Cl-]` (stereo not given), the LD50 is 1550 µmol/kg.

The target in the next test is Neuronal acetylcholine receptor; alpha4/beta2 (Homo sapiens, UniProt P17787+P43681). As to the kind of experiment: Inhibition of alpha-4-beta-2 nAChR. Type of test: protein-complex assay.
Sequence of Neuronal acetylcholine receptor; alpha4/beta2 (P17787 whole entry): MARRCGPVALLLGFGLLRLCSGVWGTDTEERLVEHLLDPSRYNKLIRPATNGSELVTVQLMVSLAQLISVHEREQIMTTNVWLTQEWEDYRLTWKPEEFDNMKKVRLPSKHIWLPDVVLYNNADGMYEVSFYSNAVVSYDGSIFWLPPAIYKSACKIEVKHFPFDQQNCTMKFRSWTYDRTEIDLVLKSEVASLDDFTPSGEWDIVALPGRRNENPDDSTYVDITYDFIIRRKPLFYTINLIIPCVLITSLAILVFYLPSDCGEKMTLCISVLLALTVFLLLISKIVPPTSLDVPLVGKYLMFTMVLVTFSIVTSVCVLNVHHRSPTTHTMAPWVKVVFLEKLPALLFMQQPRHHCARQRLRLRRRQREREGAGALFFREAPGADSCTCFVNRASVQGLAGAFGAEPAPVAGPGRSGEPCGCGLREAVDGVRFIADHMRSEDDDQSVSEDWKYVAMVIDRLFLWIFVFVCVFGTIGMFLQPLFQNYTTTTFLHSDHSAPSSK
Sequence of Neuronal acetylcholine receptor; alpha4/beta2 (P43681 whole entry): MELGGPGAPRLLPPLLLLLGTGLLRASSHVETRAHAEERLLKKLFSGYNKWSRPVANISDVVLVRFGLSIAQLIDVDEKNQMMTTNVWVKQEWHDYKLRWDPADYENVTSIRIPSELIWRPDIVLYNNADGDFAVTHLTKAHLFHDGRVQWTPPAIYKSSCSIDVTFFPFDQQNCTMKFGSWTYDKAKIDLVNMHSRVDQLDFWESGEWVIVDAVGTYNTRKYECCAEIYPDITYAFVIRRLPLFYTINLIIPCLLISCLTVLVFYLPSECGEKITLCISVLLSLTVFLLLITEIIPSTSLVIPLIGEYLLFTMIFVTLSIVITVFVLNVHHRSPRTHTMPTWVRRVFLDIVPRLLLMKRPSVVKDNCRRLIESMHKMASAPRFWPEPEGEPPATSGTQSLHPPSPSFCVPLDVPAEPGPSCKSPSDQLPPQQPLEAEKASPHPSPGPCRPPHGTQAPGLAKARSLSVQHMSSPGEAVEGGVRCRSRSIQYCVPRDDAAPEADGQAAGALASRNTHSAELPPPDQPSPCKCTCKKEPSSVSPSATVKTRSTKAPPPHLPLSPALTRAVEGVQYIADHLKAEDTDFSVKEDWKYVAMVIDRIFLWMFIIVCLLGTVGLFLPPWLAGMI
One may read the IC50 as the concentration at which inhibition is half-maximal. With `CC1C[N+]2(CCN(CCc3ccccc3)CC2)CC(C)O1.[Cl-]` (stereo not given), the IC50 was above 10 µM.
